Measured values published in patent publication US20240140895A1, “NOVEL AROMATIC MOLECULES” (XENIOPRO GmbH, priority 2018, published 2024).

System: CAL-27 cells (human tongue squamous cell carcinoma cells)
Experiment: Proliferation assay (alamarBlue) with CAL-27 cells
Type: cell-based
Details: read-out: Activity Range: weighted arithmetic mean (AVEw) of normalized fluorescence intensity relative to DMSO basis level 1.0
From the text: The antiproliferative activities of compounds falling under formula (Ia), (Tb) and (Ic), respectively, were investigated on cells or cell lines originating from a disorder of the haematopoietic system, including the myeloid cell compartment and the lymphoid cell compartment (T-cells and B-cells), the neuroendocrine system, the cervix, the breast, the ovaries, the lung, the gastrointestinal tract, and the mucosal epithelium, as well as from the skin epithelium and from the muscle. To this end, HL-60 cells, NB-4 cells, HH cells, RPMI-8402 cells, TANOUE cells, TT cells, HeLa cells, MDA-MB-231 cells, FU-OV-1 cells, LOU-NH91 cells, 23132/87 cells, CAL-27 cells, BHY cells, SCC-25 cells, A-431 cells, human primary epidermal keratinocytes (HPEK), and C2C12 cells were seeded into 96-well plates suitable for fluorescence assays (CORNING #3598) at following initial cell numbers: 1000 cells per well for HL-60; 1000 cells per well for NB-4; 5000 cells per well for HH; 5000 cells per well for RPMI-8402; 1500 cells per well for TANOUE; 9000 cells per well for TT; 2000 cells per well for HeLa; 3000 cells per well for MDA-MB-231; 3000 cells per well for FU-OV-1; 4000 cells per well for LOU-NH91; 2000 cells per well for 23132/87; 2000 cells per well for CAL-27; 1500 cells per well for BHY; 1500 cells per well for SCC-25; 700 cells per well for A-431; 1000 cells per well for HPEK; 500 cells per well for C2-C12. The cells were treated with compounds at indicated final concentrations (diluted from the 1000× stock-solutions in DMSO to a final DMSO concentration of 0.1% v/v in H2O (Water For Injection, WFI, Fisherscientific #10378939)) or with the empty carrier DMSO at 0.1% v/v as control for 5 days. At day 5 after starting the treatments the cells were subjected to the alamarBlue® Proliferation Assay (Bio-Rad Serotec GmbH, BUF012B) according to the protocol of the manufacturer. The readout was taken with a multi-well plate-reader in the fluorescence mode with applying a filter for excitation at 560 nm (band width 10 nm) and for emission at 590 nm (band width 10 nm). Control treatments for growth inhibition with commercial compounds such as Methotrexate (MTREX) and Resveratrol (RES) were included on every plate. Some of the test compounds of the present invention were obtained and applied as their salts. According cases are indicated in the column “Specification” in Table 30 to Table 62 and by their sum formula in Table 63.
The assays were performed in duplicate or more replicates of independent single experiments each containing a six-fold replicate for every condition. For every individual plate, the measured fluorescence intensity values of the conditions with compound treatment were normalized against the corresponding equally weighted arithmetic mean of the fluorescence intensity values of the six DMSO treated control wells in order to obtain the relative values to a baseline level of 1.0.
Two independent outlier analyses were performed according to the methods by Peirce and Chauvenet (Ross, Journal of Engineering Technology 2003, 1-12). Outliers confirmed by at least one of the methods were excluded from the calculations but not more than one value out of six per compound within a single experiment. The weighted arithmetic mean (here abbreviated as AVEw) for each compound was calculated from the normalized values over all independent replicates of the single experiments comprising the six replicates each. The corresponding standard deviation for the weighted arithmetic mean was calculated according to the method described by Bronstein et al. (Bronstein, Semendjajew, Musiol, Muhlig, Taschenbuch der Mathematik, 5th edition 2001 (German), publisher: Verlag Harri Deutsch, Frankfurt am Main and Thun) and was combined with the Gauβ′ error propagation associated with the performed calculation for the normalization. The resulting standard deviation is herein referred to as “combined standard deviation”. […]

Oc1ccc(C=Cc2cc(O)cc(O)c2)cc1 [RES, resveratrol, reference compound]
activity at 20 µM: 80 ± 10%
